Measured values: ChEMBL document CHEMBL1201862, “PubChem BioAssay data set” (2004)
Where a name gives a salt, the structure may show the parent alone.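 1) Cells in 96-well plates. 2) Compound, 48 h, 5 concentrations. 3) Linear interpolation between surrounding doses. 4) Unreached endpoint = highest concentration. Here, GI50 denotes the concentration required for 50% inhibition of growth.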 Activity calls are given as the source filed them. Rule as the data show it: active = GI50 up to about 1.1 µM and inactive = higher.

Assays:
Assay in all cases: NCI-60 cell line screen, 48 h
SK-MEL-28 = system: SK-MEL-28
NCI-H522 = system: NCI-H522
ACHN = system: ACHN
DLD-1 = system: DLD-1
U-251 = system: U-251
SNB-75 = system: SNB-75
NCI-H23 = system: NCI-H23
HCT-15 = system: HCT-15
A549 = system: A549
786-0 = system: 786-0
CCRF-CEM = system: CCRF-CEM
UACC-257 = system: UACC-257
SN12C = system: SN12C
DMS-273 = system: DMS-273
MOLT-4 = system: MOLT-4
SF-539 = system: SF-539
IGROV-1 = system: IGROV-1
SF-268 = system: SF-268
M14 = system: M14
TK-10 = system: TK-10
NCI-H460 = system: NCI-H460
OVCAR-8 = system: OVCAR-8
SK-MEL-2 = system: SK-MEL-2
LOX IMVI = system: LOX IMVI
HCT-116 = system: HCT-116
HOP-62 = system: HOP-62
SK-OV-3 = system: SK-OV-3
HOP-18 = system: HOP-18
HT-29 = system: HT-29
XF498 = system: XF498
SF-295 = system: SF-295
HL-60 = system: HL-60
SNB-78 = system: SNB-78
SR = system: SR
NCI-H226 = system: NCI-H226
SNB-19 = system: SNB-19
RXF 393 = system: RXF 393
SK-MEL-5 = system: SK-MEL-5
OVCAR-3 = system: OVCAR-3
DMS-114 = system: DMS-114
A498 = system: A498
EKVX = system: EKVX
KM-20L2 = system: KM-20L2
M19-MEL = system: M19-MEL
RPMI-8226 = system: RPMI-8226
HCC 2998 = system: HCC 2998
CAKI-1 = system: CAKI-1
HOP-92 = system: HOP-92
UO-31 = system: UO-31
COLO 205 = system: COLO 205
Malme-3M = system: Malme-3M
UACC-62 = system: UACC-62
KM12 = system: KM12
OVCAR-4 = system: OVCAR-4
K562 = system: K562
SW-620 = system: SW-620
OVCAR-5 = system: OVCAR-5
LXFL 529 = system: LXFL 529
PC-3 = system: PC-3
T47D = system: T47D
NCI/ADR-RES = system: NCI/ADR-RES
Hs-578T = system: Hs-578T
MCF7 = system: MCF7
MDA-MB-231 = system: MDA-MB-231
BT-549 = system: BT-549
RXF 631 = system: RXF 631

Compound: O=C(O)CSc1nnc(/C=C/c2ccccc2)[nH]1
- GI50 (SK-MEL-28): > 100 µM (inactive)
- GI50 (NCI-H522): > 100 µM (inactive)
- GI50 (ACHN): > 100 µM (inactive)
- GI50 (DLD-1): > 100 µM (inactive)
- GI50 (U-251): > 100 µM (inactive)
- GI50 (SNB-75): > 100 µM (inactive)
- GI50 (NCI-H23): > 100 µM (inactive)
- GI50 (HCT-15): > 100 µM
- GI50 (A549): > 100 µM (inactive)
- GI50 (786-0): > 100 µM (inactive)
- GI50 (CCRF-CEM): > 100 µM (inactive)
- GI50 (UACC-257): > 100 µM (inactive)
- GI50 (SN12C): > 100 µM (inactive)
- GI50 (DMS-273): > 100 µM (inactive)
- GI50 (MOLT-4): > 100 µM (inactive)
- GI50 (SF-539): > 100 µM (inactive)
- GI50 (IGROV-1): > 100 µM (inactive)
- GI50 (SF-268): > 100 µM (inactive)
- GI50 (M14): > 100 µM (inactive)
- GI50 (TK-10): > 100 µM (inactive)
- GI50 (NCI-H460): > 100 µM (inactive)
- GI50 (OVCAR-8): > 100 µM (inactive)
- GI50 (SK-MEL-2): > 100 µM (inactive)
- GI50 (LOX IMVI): > 61.2 µM (inactive)
- GI50 (HCT-116): > 100 µM (inactive)
- GI50 (HOP-62): > 100 µM (inactive)
- GI50 (SK-OV-3): > 100 µM (inactive)
- GI50 (HOP-18): > 92.7 µM (inactive)
- GI50 (HT-29): > 100 µM (inactive)
- GI50 (XF498): > 100 µM (inactive)
- GI50 (SF-295): > 100 µM (inactive)
- GI50 (HL-60): > 100 µM (inactive)
- GI50 (SNB-78): > 100 µM (inactive)
- GI50 (SR): > 100 µM (inactive)
- GI50 (NCI-H226): > 100 µM (inactive)
- GI50 (SNB-19): > 100 µM (inactive)
- GI50 (RXF 393): > 100 µM (inactive)
- GI50 (SK-MEL-5): > 100 µM (inactive)
- GI50 (OVCAR-3): > 100 µM (inactive)
- GI50 (DMS-114): > 64.3 µM (inactive)
- GI50 (A498): > 100 µM (inactive)
- GI50 (EKVX): > 100 µM (inactive)
- GI50 (KM-20L2): > 100 µM (inactive)
- GI50 (M19-MEL): > 100 µM (inactive)
- GI50 (RPMI-8226): > 100 µM (inactive)
- GI50 (HCC 2998): > 100 µM (inactive)
- GI50 (CAKI-1): > 100 µM (inactive)
- GI50 (HOP-92): > 100 µM (inactive)
- GI50 (UO-31): > 100 µM (inactive)
- GI50 (COLO 205): > 100 µM (inactive)
- GI50 (Malme-3M): > 100 µM (inactive)
- GI50 (UACC-62): > 100 µM (inactive)
- GI50 (KM12): > 100 µM (inactive)
- GI50 (OVCAR-4): > 100 µM (inactive)
- GI50 (K562): > 100 µM (inactive)
- GI50 (SW-620): > 57.5 µM (inactive)
- GI50 (OVCAR-5): > 100 µM (inactive)
- GI50 (LXFL 529): > 100 µM (inactive)

Compound: N=c1ccn2c(n1)O[C@H]1[C@H](O)[C@@H](CO)O[C@H]12 [ANCITABINE HYDROCHLORIDE]
- GI50 (NCI-H522): 47.4 µM (inactive)
- GI50 (ACHN): 0.291 µM (active)
- GI50 (DLD-1): 652 µM (inactive)
- GI50 (U-251): 15.1 µM (inactive)
- GI50 (SNB-75): 532 µM (inactive)
- GI50 (NCI-H23): 0.406 µM (active)
- GI50 (A549): 0.198 µM (active)
- GI50 (786-0): 0.57 µM (active)
- GI50 (PC-3): 2.79 µM (inactive)
- GI50 (UACC-257): 78.7 µM (inactive)
- GI50 (SN12C): 1.91 µM (inactive)
- GI50 (T47D): 213 µM (inactive)
- GI50 (DMS-273): 2.34 µM (inactive)
- GI50 (MOLT-4): 0.207 µM (active)
- GI50 (SF-539): 44.1 µM (inactive)
- GI50 (IGROV-1): 151 µM (inactive)
- GI50 (SF-268): 7.05 µM (inactive)
- GI50 (M14): 0.253 µM (active)
- GI50 (TK-10): > 1000 µM (inactive)
- GI50 (NCI/ADR-RES): 2.35 µM (inactive)
- GI50 (NCI-H460): 0.154 µM (active)
- GI50 (OVCAR-8): 0.658 µM (active)
- GI50 (SK-MEL-2): 411 µM (inactive)
- GI50 (LOX IMVI): 0.347 µM (active)
- GI50 (HCT-116): 0.282 µM (active)
- GI50 (HOP-62): 0.292 µM (active)
- GI50 (SK-OV-3): 66.1 µM (inactive)
- GI50 (HOP-18): 11.2 µM (inactive)
- GI50 (HT-29): 135 µM (inactive)
- GI50 (Hs-578T): > 1000 µM (inactive)
- GI50 (XF498): > 647 µM (inactive)
- GI50 (SF-295): 25.2 µM (inactive)
- GI50 (HL-60): 0.346 µM (active)
- GI50 (SNB-78): 242 µM (inactive)
- GI50 (SR): 0.183 µM (active)
- GI50 (RXF 393): 79.8 µM (inactive)
- GI50 (SK-MEL-5): 9.23 µM (inactive)
- GI50 (DMS-114): 0.406 µM (active)
- GI50 (A498): 13.6 µM (inactive)
- GI50 (MCF7): 0.522 µM (active)
- GI50 (EKVX): 62.1 µM (inactive)
- GI50 (KM-20L2): > 562 µM (inactive)
- GI50 (M19-MEL): 7.21 µM (inactive)
- GI50 (RPMI-8226): 141 µM (inactive)
- GI50 (MDA-MB-231): 31.7 µM (inactive)
- GI50 (HCC 2998): 33.7 µM (inactive)
- GI50 (CAKI-1): 1.66 µM (inactive)
- GI50 (COLO 205): 154 µM (inactive)
- GI50 (Malme-3M): 3.03 µM (inactive)
- GI50 (BT-549): > 1000 µM (inactive)
- GI50 (UACC-62): 2.24 µM (inactive)
- GI50 (OVCAR-4): > 1000 µM (inactive)
- GI50 (K562): 8.85 µM (inactive)
- GI50 (OVCAR-5): 24.7 µM (inactive)

Compound: COC(=O)c1cc(O)ccc1O [METHYL 2,5-DIHYDROXYBENZOATE]
- GI50 (SK-MEL-28): > 100 µM (inactive)
- GI50 (NCI-H522): 93.1 µM (inactive)
- GI50 (ACHN): > 100 µM (inactive)
- GI50 (U-251): > 100 µM (inactive)
- GI50 (SNB-75): > 100 µM (inactive)
- GI50 (HCT-15): > 100 µM
- GI50 (A549): > 100 µM (inactive)
- GI50 (786-0): > 100 µM (inactive)
- GI50 (CCRF-CEM): > 100 µM (inactive)
- GI50 (UACC-257): > 100 µM (inactive)
- GI50 (SN12C): > 100 µM (inactive)
- GI50 (DMS-273): > 100 µM (inactive)
- GI50 (RXF 631): > 100 µM (inactive)
- GI50 (MOLT-4): > 100 µM (inactive)
- GI50 (SF-539): > 100 µM (inactive)
- GI50 (IGROV-1): > 100 µM (inactive)
- GI50 (SF-268): > 100 µM (inactive)
- GI50 (M14): > 100 µM (inactive)
- GI50 (TK-10): > 100 µM (inactive)
- GI50 (NCI-H460): > 100 µM (inactive)
- GI50 (OVCAR-8): > 100 µM (inactive)
- GI50 (SK-MEL-2): > 100 µM (inactive)
- GI50 (LOX IMVI): > 100 µM (inactive)
- GI50 (HOP-62): > 100 µM (inactive)
- GI50 (SK-OV-3): > 100 µM (inactive)
- GI50 (HT-29): > 100 µM (inactive)
- GI50 (XF498): > 100 µM (inactive)
- GI50 (SF-295): > 100 µM (inactive)
- GI50 (HL-60): > 100 µM (inactive)
- GI50 (SNB-78): > 100 µM (inactive)
- GI50 (NCI-H226): > 100 µM (inactive)
- GI50 (SNB-19): > 100 µM (inactive)
- GI50 (RXF 393): > 100 µM (inactive)
- GI50 (SK-MEL-5): > 100 µM (inactive)
- GI50 (OVCAR-3): > 100 µM (inactive)
- GI50 (DMS-114): > 100 µM (inactive)
- GI50 (EKVX): > 100 µM (inactive)
- GI50 (M19-MEL): > 100 µM (inactive)
- GI50 (RPMI-8226): > 100 µM (inactive)
- GI50 (HCC 2998): > 100 µM (inactive)
- GI50 (CAKI-1): > 100 µM (inactive)
- GI50 (HOP-92): > 100 µM (inactive)
- GI50 (UO-31): > 100 µM (inactive)
- GI50 (COLO 205): > 100 µM (inactive)
- GI50 (Malme-3M): > 100 µM (inactive)
- GI50 (UACC-62): > 100 µM (inactive)
- GI50 (KM12): > 100 µM (inactive)
- GI50 (OVCAR-4): > 100 µM (inactive)
- GI50 (K562): > 100 µM (inactive)
- GI50 (SW-620): > 100 µM (inactive)
- GI50 (OVCAR-5): > 100 µM (inactive)
- GI50 (LXFL 529): > 100 µM (inactive)
